From PubChem BioAssay AID330 (DTP/NCI, 2004)
Several values for one entry are separate records, joined by “and”; a condition that tells them apart may be missing. Identical values can stand only once. Inconclusive results and toxic doses are left out. Rule for the calls: active = survival T/C of 150% or more; inactive = T/C below 125% in these data.

Test system: P388 leukemia ip, CD2F1 mice, survival T/C
Assay: NCI In Vivo Anticancer Drug Screen. Data for tumor model P388 Leukemia (intraperitoneal) in CD2F1 (CDF1) mice
Details: endpoint: median survival time, higher = longer survival
Outline: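 Mice carrying the transplanted tumor received test compound or vehicle. Survival was recorded in each group, and the value is the treated-group measurement divided by that of the vehicle-treated control group.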

[1] = dose: 25.0 mg/kg/injection, schedule: Q01DX005 (ip), vehicle: Klucel (hydroxypropylcellulose) (HPC)
[2] = dose: 50.0 mg/kg/injection, schedule: Q01DX005 (ip), vehicle: Klucel (hydroxypropylcellulose) (HPC)
[3] = dose: 100.0 mg/kg/injection, schedule: Q01DX005 (ip), vehicle: Klucel (hydroxypropylcellulose) (HPC)
[4] = dose: 50.0 mg/kg/injection, schedule: Q01DX005 (ip), vehicle: saline with Tween-80
[5] = dose: 100.0 mg/kg/injection, schedule: Q01DX005 (ip), vehicle: saline with Tween-80
[6] = dose: 50.0 mg/kg/injection, schedule: Q01DX009 (ip), vehicle: saline with Tween-80
[7] = dose: 100.0 mg/kg/injection, schedule: Q01DX009 (ip), vehicle: saline with Tween-80
[8] = dose: 200.0 mg/kg/injection, schedule: Q01DX009 (ip), vehicle: saline with Tween-80
[9] = dose: 200.0 mg/kg/injection, schedule: Q01DX005 (ip), vehicle: Klucel (hydroxypropylcellulose) (HPC)
[10] = dose: 50.0 mg/kg/injection, schedule: Q01DX005 (ip), vehicle: saline
[11] = dose: 50.0 mg/kg/injection, schedule: Q01DX009 (ip), vehicle: saline
[12] = dose: 60.0 mg/kg/injection, schedule: Q01DX005 (ip), vehicle: saline with Tween-80
[13] = dose: 120.0 mg/kg/injection, schedule: Q01DX005 (ip), vehicle: saline with Tween-80
[14] = dose: 240.0 mg/kg/injection, schedule: Q01DX005 (ip), vehicle: saline with Tween-80
[15] = dose: 50.0 mg/kg/injection, schedule: Q01DX009 (ip), vehicle: Klucel (hydroxypropylcellulose) (HPC)
[16] = dose: 100.0 mg/kg/injection, schedule: Q01DX009 (ip), vehicle: Klucel (hydroxypropylcellulose) (HPC)
[17] = dose: 200.0 mg/kg/injection, schedule: Q01DX009 (ip), vehicle: Klucel (hydroxypropylcellulose) (HPC)

Measured: T/C

CC(=O)Nc1ccc(N=NN(C)c2ccccc2)cc1
inactive: dose: 50.0 mg/kg/injection, schedule: Q01DX001 (ip), vehicle: saline 104 % of control | dose: 100.0 mg/kg/injection, schedule: Q01DX001 (ip), vehicle: saline 100 % of control

O=C(O)C1Cc2c([nH]c3ccccc23)C2CCC(=O)N12 (stereo not given)
inactive: dose: 25.0 mg/kg/injection, schedule: Q04DX003 (ip), vehicle: suspension in saline 106 % of control | dose: 50.0 mg/kg/injection, schedule: Q04DX003 (ip), vehicle: suspension in saline 96 % of control | dose: 100.0 mg/kg/injection, schedule: Q04DX003 (ip), vehicle: suspension in saline 98 % of control | dose: 200.0 mg/kg/injection, schedule: Q04DX003 (ip), vehicle: suspension in saline 98 % of control

COc1ccc(/C=C/C(=O)c2ccc(OC)c(OC)c2)cc1OC
inactive: dose: 100.0 mg/kg/injection, schedule: Q04DX003 (ip), vehicle: saline with Tween-80 90 % of control | dose: 200.0 mg/kg/injection, schedule: Q04DX003 (ip), vehicle: saline with Tween-80 95 % of control | dose: 400.0 mg/kg/injection, schedule: Q04DX003 (ip), vehicle: saline with Tween-80 95 % of control

C[C@@H]1C[C@H]2OC(=O)[C@@]3(C)CCC[C@@](C)([C@@H]23)[C@@]1(O)CCc1ccoc1
inactive: dose: 12.5 mg/kg/injection, schedule: Q01DX005 (ip), vehicle: Klucel (hydroxypropylcellulose) (HPC) 108 % of control | [1] 105 % of control | [2] 106 % of control | [3] 97 % of control

CC1NC(CCCCCCCCCCC2=CC(CCCCCCCCCCC3CCC(O)C(C)N3)C3CCCN3C2)CCC1O (stereo not given)
inactive: dose: 0.93 mg/kg/injection, schedule: Q01DX005 (ip), vehicle: water 95 % of control | dose: 1.87 mg/kg/injection, schedule: Q01DX005 (ip), vehicle: water 96 % of control | dose: 3.75 mg/kg/injection, schedule: Q01DX005 (ip), vehicle: water 91 % of control and 92 % of control and 94 % of control | dose: 7.5 mg/kg/injection, schedule: Q01DX005 (ip), vehicle: water 93 % of control

CCN(CC)Cc1cc2[nH]c3c4ccc(Cl)cc4ncc3c2cc1OC (tested in a mixture with another compound)
inactive: dose: 12.5 mg/kg/injection, schedule: Q01DX005 (ip), vehicle: saline with Tween-80 100 % of control and 108 % of control | dose: 25.0 mg/kg/injection, schedule: Q01DX005 (ip), vehicle: saline with Tween-80 109 % of control [middle of 4 runs] | [4] 102 % of control and 103 % of control and 113 % of control | [5] 105 % of control and 109 % of control and 106 % of control

O=C1c2cccnc2C(=O)c2c(O)ccc(O)c21
inactive: [6] 95 % of control | [7] 95 % of control | [8] 99 % of control | dose: 400.0 mg/kg/injection, schedule: Q01DX009 (ip), vehicle: saline with Tween-80 100 % of control

Cc1c(C(=O)O)no[n+]1[O-]
inactive: dose: 60.0 mg/kg/injection, schedule: Q01DX005 (ip), vehicle: saline 101 % of control | dose: 120.0 mg/kg/injection, schedule: Q01DX005 (ip), vehicle: saline 93 % of control | dose: 240.0 mg/kg/injection, schedule: Q01DX005 (ip), vehicle: saline 93 % of control

O=C(O)CCCCC1SCC2NC(=O)NC21 (stereo not given)
inactive: [6] 100 % of control | [7] 108 % of control | [8] 108 % of control

O=C(/C(O)=C(\O)C(=O)N(C1CCCCC1)C1CCCCC1)N(C1CCCCC1)C1CCCCC1
inactive: [1] 100 % of control | [2] 96 % of control | [3] 100 % of control | [9] 92 % of control

COc1ccc(CCN/C=C2\Cc3c(Cl)cccc3C2=O)cc1OC
inactive: dose: 100.0 mg/kg/injection, schedule: Q04DX003 (ip), vehicle: Klucel (hydroxypropylcellulose) (HPC) 100 % of control | dose: 200.0 mg/kg/injection, schedule: Q04DX003 (ip), vehicle: Klucel (hydroxypropylcellulose) (HPC) 93 % of control | dose: 400.0 mg/kg/injection, schedule: Q04DX003 (ip), vehicle: Klucel (hydroxypropylcellulose) (HPC) 99 % of control

CCN(CC)CCCNc1ccc(C)c2sc3ccccc3c(=O)c12
inactive: dose: 12.5 mg/kg/injection, schedule: Q01DX005 (ip), vehicle: saline 100 % of control | dose: 25.0 mg/kg/injection, schedule: Q01DX005 (ip), vehicle: saline 109 % of control | [10] 99 % of control and 114 % of control

CCCOC(=O)/C=C(\Br)C(=O)OCCC
inactive: dose: 6.25 mg/kg/injection, schedule: Q01DX009 (ip), vehicle: saline with Tween-80 113 % of control | dose: 12.5 mg/kg/injection, schedule: Q01DX009 (ip), vehicle: saline with Tween-80 116 % of control and 117 % of control | dose: 25.0 mg/kg/injection, schedule: Q01DX009 (ip), vehicle: saline with Tween-80 103 % of control

CNC(=O)OC1=NCCN1
inactive: [2] 94 % of control | [3] 100 % of control | [9] 99 % of control

BrC[P+](CBr)(CBr)CBr
inactive: [4] 114 % of control and 117 % of control | [5] 123 % of control
active: dose: 12.5 mg/kg/injection, schedule: Q01DX009 (ip), vehicle: saline 151 % of control | dose: 25.0 mg/kg/injection, schedule: Q01DX009 (ip), vehicle: saline 150 % of control | [6] 151 % of control | [11] 163 % of control | [7] 157 % of control

CC(C)N(C(=O)c1ccc([Si](C)(C)C)c(C(=O)N(C(C)C)C(C)C)n1)C(C)C
inactive: [12] 98 % of control | [13] 94 % of control | [14] 98 % of control

CCC1(O)CC2CN(CCc3c([nH]c4ccccc34)C(C(=O)OC)(c3cc4c(cc3OC)N(C=O)C3C(O)(C(=O)OC)CC5(CC)C=CCN6CCC43C65)C2)C1 (stereo not given)
active: dose: 1.0 mg/kg/injection, schedule: Q01DX001 (ip), vehicle: saline 155 % of control and 160 % of control | dose: 2.0 mg/kg/injection, schedule: Q01DX001 (ip), vehicle: saline 158 % of control and 160 % of control | dose: 4.0 mg/kg/injection, schedule: Q01DX001 (ip), vehicle: saline 180 % of control and 185 % of control | dose: 8.0 mg/kg/injection, schedule: Q01DX001 (ip), vehicle: saline 205 % of control and 220 % of control | dose: 16.0 mg/kg/injection, schedule: Q01DX001 (ip), vehicle: saline 255 % of control

CC(=O)Nc1cc2cc(NS(=O)(=O)c3ccc(Cl)c(Cl)c3)ccc2oc1=O
inactive: [2] 89 % of control | [3] 93 % of control | [9] 95 % of control

NC(=S)N1CC=CCC1
inactive: [15] 99 % of control | [16] 101 % of control | [17] 101 % of control

Cn1c(-c2ccccc2)c(-c2ccccc2)c(=O)c(-c2ccccc2)c1-c1ccccc1
inactive: [15] 92 % of control | [16] 92 % of control | [17] 91 % of control

C/C=C\n1ccccc1=O
inactive: [11] 107 % of control | dose: 100.0 mg/kg/injection, schedule: Q01DX009 (ip), vehicle: saline 113 % of control | dose: 200.0 mg/kg/injection, schedule: Q01DX009 (ip), vehicle: saline 109 % of control

O=C1NCC(N2C(=O)CC3(CCCC3)C2=O)O1 (stereo not given)
inactive: [15] 100 % of control | [16] 94 % of control | [17] 91 % of control

Oc1ccc(C(c2ccc(O)cc2)C(c2ccc(O)cc2)c2ccc(O)cc2)cc1
inactive: [6] 107 % of control | [7] 100 % of control | [8] 113 % of control

COc1ccc(N/C(=C/C#N)c2ccccc2)cc1
inactive: dose: 100.0 mg/kg/injection, schedule: Q01DX001 (ip), vehicle: saline with Tween-80 100 % of control | dose: 200.0 mg/kg/injection, schedule: Q01DX001 (ip), vehicle: saline with Tween-80 99 % of control | dose: 400.0 mg/kg/injection, schedule: Q01DX001 (ip), vehicle: saline with Tween-80 95 % of control

Cc1oc2c(c(C)nn2-c2ccccc2)c(=O)c1Cl
inactive: [2] 92 % of control | [3] 106 % of control | [9] 108 % of control

Cc1nnc(N)c(C#N)c1C
inactive: [10] 95 % of control | dose: 100.0 mg/kg/injection, schedule: Q01DX005 (ip), vehicle: saline 104 % of control | dose: 200.0 mg/kg/injection, schedule: Q01DX005 (ip), vehicle: saline 93 % of control

CC(CC(=O)O)(CC(=O)O)CC(=O)O
inactive: [6] 110 % of control | [7] 101 % of control | [8] 97 % of control

Nc1nnc(/C=C/c2ccccc2)o1
inactive: [12] 117 % of control | [13] 107 % of control | [14] 109 % of control
